From US20240277708A1, “Use of [1,2,4] Triazolo [4,3-B] Pyridazine Derivative For Preventing and Treating Senescence and Senescence-Related Diseases” (The Eighth Affiliated Hospital, Sun Yat-Sen University, priority 2023, published 2024)

System: MRC5 cells
Assay: VP16-induced cellular senescence, SA-β-gal staining, MRC5 cells
Type: cell-based, Human
Conditions: C1632 120 μM, VP16 40 μM for 4-7 days, FIG. 1A, 1C
Description: MRC5 and BJ cells were cultured in DMEM low-glucose medium containing 10% FBS. The cells were passaged or plated at a ratio of 1:3.0.5×10^5 cells were plated in 12-well plates and in the next day treated with VP16 at a final concentration of 40 μM for 4-7 days to induce cellular senescence. A cellular senescence model was constructed. While inducing cellular senescence, C1632 with a final concentration of 120 μM is added. The effect of C1632 on the senescence of BJ and MRC5 cells was detected by SA-β-gal staining, and the effect of C1632 on cellular senescence was studied.

CC(=O)N(C)c1cccc(-c2ccc3nnc(C)n3n2)c1 [C1632]
VP16-induced senescence (β-gal-positive cell rate) in MRC5 cells: inhibits VP16-induced senescence
